{"source": "patent US20230391758A1", "about": "“MODIFIED BENZOFURAN-CARBOXAMIDES AS GLUCOSYLCERAMIDE SYNTHASE INHIBITORS” (MERCK SHARP & DOHME CORP., priority 2020, published 2023)"}
{"molecular_target": "GCS enzyme (glucosylceramide synthase) contained within Golgi preparations isolated from human A375 malignant melanoma skin cells (Homo sapiens (Human), UniProt Q16739)", "sequence (Q16739 whole entry)": "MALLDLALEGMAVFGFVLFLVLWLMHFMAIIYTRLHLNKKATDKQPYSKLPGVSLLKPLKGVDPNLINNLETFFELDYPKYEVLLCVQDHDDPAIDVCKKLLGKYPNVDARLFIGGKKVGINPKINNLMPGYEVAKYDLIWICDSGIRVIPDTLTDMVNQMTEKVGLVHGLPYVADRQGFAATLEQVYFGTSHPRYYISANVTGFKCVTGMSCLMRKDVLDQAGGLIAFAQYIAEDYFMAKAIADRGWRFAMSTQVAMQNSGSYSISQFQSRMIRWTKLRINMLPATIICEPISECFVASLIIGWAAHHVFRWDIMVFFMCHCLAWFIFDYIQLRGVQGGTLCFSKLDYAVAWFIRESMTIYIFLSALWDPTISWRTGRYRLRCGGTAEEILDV", "experiment": "UDP-Glo glucosylceramide synthase biochemical assay", "conditions": "1.5 μg crude golgi preparation from A375 cells; C6 ceramide and UDP-glucose at 2×Km; 20 h incubation at room temperature; UDP detected by luminescence", "source_text": "UDP-Glo™ Glucosylceramide Synthase Biochemical Assay\nA UDP-Glo™ glucosylceramide synthase biochemical assay was utilized to evaluate the effect of test compounds on the activity of endogenous levels of GCS enzyme contained within Golgi preparations isolated from human A375 malignant melanoma skin cells. The UDP-Glo™ glucosylceramide synthase assay uses UDP-Glucose as a nucleotide-glycosyl donor and ceramide as substrate acceptor molecules. In the reaction, glucosylceramide synthase (GCS) transfers glucose from UDP-Glucose to ceramide. Glucosylceramide and UDP are released as products.\nUsing Promega's UDP-Glo™ Glycosyltransferase assay kit (Promega Corporation, Madison, WI, USA (Promega)), GCS activity was indirectly measured by detecting the amount of UDP produced. An aliquot of GCS enzyme (1.5 μg crude golgi preparation, total protein) and titrated test compound were aliquoted to each well and incubated for 30 minutes at room temperature. Substrate mixture was prepared by mixing C6 ceramide (Avanti Polar Lipids, Alabaster, AL USA (Avanti)) (micelles prepared at 0.6 mM in 0.6 mM DOPC) and UDP-glucose (20 μ.M; Promega), at concentrations equivalent to 2×Km, in assay buffer (25 mM HEPES (pH 7.5), 50 mM KCl, 5 mM MgCl2). An equivalent volume of substrate mixture was then added to each well. Following a 20 h incubation at room temperature to allow for GCS turnover of substrate, an equal volume of UDP detection reagent (Promega) was added to each well and incubated for an additional 75 minutes at room temperature to simultaneously convert the accumulated UDP product into ATP and generate light in a luciferase reaction. The generated light was detected using a luminometer. […] luminescence values (RLUs) were normalized to mean “min” and “max” effects, as determined on each plate. “Min” was defined as the mean of the values of the wells treated with vehicle (DMSO) and which represent 0% inhibition; “max” was defined as the mean of the values of the wells treated with a reference inhibitor and which represent the 100% effect. Values for % Emax and EC50 were determined by best-fitting the normalized data to a curve in Activity Base along a four-parameter logistic nonlinear regression (4PL) model (based on the Levenberg-Marquardt algorithm and defined by the equation below): […]\nwhere: n is 4PMin (bottom of the curve); m is 4PMax (top of the curve); i is IP (inflection point of curve); and p is slope. See Levenberg, K., “A Method for the Solution of Certain Problems in Least Squares”, Quart. Appl. Math. 2, (1944), pp 164-168 and Marquardt, D., “An Algorithm for Least Squares Estimation on Nonlinear Parameters”, SIAM J. Appl. Math. 11, (1963) pp 431-441.", "units": {"EC50": "nM"}}
{"smiles": "COc1ccc(C#N)cc1-c1cc(Cl)cc2cc(C(=O)N[C@@H]3CC[C@H](O)C3)oc12", "note": "[Compound 5, 5-chloro-7-(5-cyano-2-methoxy-phenyl)-N-[(1R,3S)-3-hydroxycyclopentyl] benzofuran-2-carboxamide]", "EC50": 0.17}
{"smiles": "N#Cc1ccc(F)c(-c2cccc3cc(C(=O)N[C@@H]4CC[C@H](O)C4)oc23)c1", "note": "[Compound 32, 7-(5-cyano-2-fluoro-phenyl)-N-[(1R,3S)-3-hydroxycyclopentyl] benzofuran-2-carboxamide]", "EC50": 5}
{"smiles": "C[C@]1(NC(=O)c2cc3cc(F)cc(-c4ccccc4OCC(F)(F)F)c3o2)CC[C@H](O)CC1", "note": "[Compound 27, Cis or trans-5-fluoro-N-(4-hydroxy-1-methyl-cyclohexyl)-7-[2-(2,2,2-trifluoroethoxy)phenyl] benzofuran-2-carboxamide]", "EC50": 0.24}
{"smiles": "Cc1nn(C)c(C)c1-c1cccc2cc(C(=O)Nc3ccc4cnccc4n3)oc12", "note": "[Compound 2, N-(1,6-naphthyridin-2-yl)-7-(1,3,5-trimethylpyrazol-4-yl)benzofuran-2-carboxamide]", "EC50": 0.065}
{"smiles": "O=C(NC12CCC(O)(CC1)C2)c1cc2cccc(-c3cc(Cl)cnc3OC(F)F)c2o1", "note": "[Compound 6, 7-[5-chloro-2-(difluoromethoxy)-3-pyridyl]-N-(4-hydroxynorbornan-1-yl)benzofuran-2-carboxamide]", "EC50": 0.87}
{"smiles": "CCCOc1ccccc1-c1cccc2cc(C(=O)NC3CNCCC3(F)F)oc12", "note": "(single isomer, unassigned) [Compound 36, (R or S)-N-(4,4-difluoro-3-piperidyl)-7-(2-propoxyphenyl)benzofuran-2-carboxamide]", "EC50": 1.4}
{"smiles": "COc1ccc(F)c(F)c1-c1cccc2cc(C(=O)N[C@@H]3CC[C@H](O)C3)oc12", "note": "[Compound 30, 7-(2,3-difluoro-6-methoxy-phenyl)-N-[(1R,3S)-3-hydroxycyclopentyl] benzofuran-2-carboxamide]", "EC50": 3.4}
{"smiles": "COc1ncc(C#N)cc1-c1cccc2cc(C(=O)NC34CCC(O)(CC3)C4)oc12", "note": "[Compound 38, 7-(5-cyano-2-methoxypyridin-3-yl)-N-(4-hydroxybicyclo[2.2.1]heptan-1-yl)benzofuran-2-carboxamide]", "EC50": 0.79}
{"smiles": "CCCCOc1ccccc1-c1cccc2cc(C(=O)NC3CN4CCC3CC4)oc12", "note": "(racemic) [Compound 21, (R and S)-7-(2-butoxyphenyl)-N-quinuclidin-3-yl-benzofuran-2-carboxamide]", "EC50": 0.021}
{"smiles": "Cc1nn(C)c(C)c1-c1cccc2cc(C(=O)NC3CN4CCC3CC4)oc12", "note": "(racemic) [Compound 37, (R and S)-N-(quinuclidin-3-yl)-7-(1,3,5-trimethyl-1H-pyrazol-4-yl)benzofuran-2-carboxamide]", "EC50": 2.4}
{"smiles": "Cc1cccc(NC(=O)c2cc3cccc(-c4c(C)nn(C)c4C)c3o2)n1", "note": "[Compound 12, N-(6-methyl-2-pyridyl)-7-(1,3,5-trimethylpyrazol-4-yl)benzofuran-2-carboxamide]", "EC50": 21}
{"smiles": "O=C(NC1CNCCC1(F)F)c1nc2cccc(-c3ccccc3OCC(F)(F)F)c2o1", "note": "(racemic) [Compound 39, (R and S)-N-(4,4-difluoropiperidin-3-yl)-7-(2-(2,2,2-trifluoroethoxy)phenyl)benzo[d]oxazole-2-carboxamide]", "EC50": 44}
{"smiles": "CCCCOc1ccccc1-c1cccc2cc(C(=O)NC(C)(C)CO)oc12", "note": "[Compound 13, 7-(2-butoxyphenyl)-N-(2-hydroxy-1,1-dimethyl-ethyl)benzofuran-2-carboxamide]", "EC50": 28}
{"smiles": "O=C(N[C@H]1CC[C@H](O)CC1)c1cc2cccc(-c3ccccc3OCC(F)(F)F)c2o1", "note": "[Compound 34, Trans-N-(4-hydroxycyclohexyl)-7-[2-(2,2,2-trifluoroethoxy)phenyl] benzofuran-2-carboxamide]", "EC50": 34}
{"smiles": "COc1ncc(Cl)cc1-c1cccc2cc(C(=O)NC34CCC(O)(CC3)C4)oc12", "note": "[Compound 8, 7-(5-chloro-2-methoxy-3-pyridyl)-N-(4-hydroxynorbornan-1-yl)benzofuran-2-carboxamide]", "EC50": 1.1}
{"smiles": "O=C(NC1CCC(O)CC1F)c1cc2cccc(-c3ccccc3OCC(F)(F)F)c2o1", "note": "(stereo not shown) [Compound 11, N-(2-fluoro-4-hydroxy-cyclohexyl)-7-[2-(2,2,2-trifluoroethoxy)phenyl] benzofuran-2-carboxamide]", "EC50": 7.1}
{"smiles": "COc1ccc(C#N)cc1-c1cccc2cc(C(=O)N[C@@H]3CC[C@H](O)C3)oc12", "note": "[Compound 19, 7-(5-cyano-2-methoxyphenyl)-N-((1R,3S)-3-hydroxycyclopentyl)benzofuran-2-carboxamide]", "EC50": 0.26}
{"smiles": "CCCOc1ccccc1-c1cccc2cc(C(=O)NC3CN4CCC3CC4)oc12", "note": "(racemic) [Compound 23, (R and S)-7-(2-propoxyphenyl)-N-quinuclidin-3-yl-benzofuran-2-carboxamide]", "EC50": 0.044}
{"smiles": "COCCOc1ccccc1-c1cccc2cc(C(=O)Nc3cccnc3)oc12", "note": "[Compound 35, 7-[2-(2-methoxyethoxy)phenyl]-N-(3-pyridyl)benzofuran-2-carboxamide]", "EC50": 94}
{"smiles": "O=C(N[C@@H]1CNCC[C@H]1F)c1cc2cccc(-c3ccccc3OCC(F)(F)F)c2o1", "note": "(relative stereo) [Compound 15, N-(trans-4-fluoro-3-piperidyl)-7-[2-(2,2,2-trifluoroethoxy)phenyl] benzofuran-2-carboxamide]", "EC50": 1.7}
{"smiles": "O=C(Nc1cccnc1)c1cc2cccc(-c3ccccc3OCC(F)(F)F)c2o1", "note": "[Compound 7, N-(3-pyridyl)-7-[2-(2,2,2-trifluoroethoxy)phenyl] benzofuran-2-carboxamide]", "EC50": 0.99}
{"smiles": "CCCOc1ccccc1-c1cccc2cc(C(=O)NC3CCNCC3(F)F)oc12", "note": "(single isomer, unassigned) [Compound 18, N-[(4R or 4S)-3,3-difluoro-4-piperidyl]-7-(2-propoxyphenyl)benzofuran-2-carboxamide]", "EC50": 140}
{"smiles": "COc1ccc(C#N)cc1-c1cccc2cc(C(=O)NC34CCC(O)(CC3)C4)oc12", "note": "[Compound 3, 7-(5-cyano-2-methoxy-phenyl)-N-(4-hydroxynorbornan-1-yl)benzofuran-2-carboxamide]", "EC50": 0.097}
{"smiles": "CC(CO)C12CC(NC(=O)c3cc4cccc(-c5ccccc5OCC(F)(F)F)c4o3)(C1)C2", "note": "(racemic) [Compound 9, (R and S)-N-[3-(2-hydroxy-1-methyl-ethyl)-1-bicyclo[1.1.1]pentanyl]-7-[2-(2,2,2-trifluoroethoxy)phenyl] benzofuran-2-carboxamide]", "EC50": 1.7}
{"smiles": "O=C(NC1CN2CCC1CC2)c1cc2cc(Cl)cc(-c3ccccc3OCCF)c2o1", "note": "(racemic) [Compound 20, (R and S)-5-chloro-7-[2-(2-fluoroethoxy)phenyl]-N-quinuclidin-3-yl-benzofuran-2-carboxamide]", "EC50": 0.02}
{"smiles": "N#Cc1ccc(Cl)c(-c2cccc3cc(C(=O)N[C@@H]4CC[C@H](O)C4)oc23)c1", "note": "[Compound 25, 7-(2-chloro-5-cyano-phenyl)-N-[(1R,3S)-3-hydroxycyclopentyl] benzofuran-2-carboxamide]", "EC50": 0.047}
{"smiles": "CCOc1ccc(F)cc1-c1cccc2cc(C(=O)N[C@@H]3CC[C@H](O)C3)oc12", "note": "[Compound 33, 7-(2-ethoxy-5-fluoro-phenyl)-N-[(1R,3S)-3-hydroxycyclopentyl] benzofuran-2-carboxamide]", "EC50": 6.5}
{"smiles": "O=C(NC1CNCCC1(F)F)c1cc2cccc(-c3ccccc3OCC(F)(F)F)c2o1", "note": "(racemic) [Compound 14, (R and S)-N-(4,4-difluoro-3-piperidyl)-7-[2-(2,2,2-trifluoroethoxy)phenyl] benzofuran-2-carboxamide]", "EC50": 0.48}
{"smiles": "CC(C)Oc1ccc(C#N)cc1-c1cc(F)cc2cc(C(=O)N[C@H]3C[C@@H](O)C3)oc12", "note": "[Compound 26, Cis-7-(5-cyano-2-isopropoxy-phenyl)-5-fluoro-N-(3-hydroxycyclobutyl) benzofuran-2-carboxamide]", "EC50": 0.1}
{"smiles": "CC(C)Oc1ccc(C#N)cc1-c1cc(F)cc2cc(C(=O)NC(C)(C)CO)oc12", "note": "[Compound 29, 7-(5-cyano-2-isopropoxy-phenyl)-5-fluoro-N-(2-hydroxy-1,1-dimethyl-ethyl)benzofuran-2-carboxamide]", "EC50": 0.82}
{"smiles": "N#Cc1ccc(OC(F)F)c(-c2cccc3cc(C(=O)NC45CCC(O)(CC4)C5)oc23)c1", "note": "[Compound 4, 7-[5-cyano-2-(difluoromethoxy)phenyl]-N-(4-hydroxynorbornan-1-yl)benzofuran-2-carboxamide]", "EC50": 0.1}
